Measured values taken from patent US20230391772A1, “METHODS AND COMPOSITIONS FOR TARGETED PROTEIN DEGRADATION” (Ranok Therapeutics (Hangzhou) Co. Ltd., priority 2020, published 2023).

How the values were obtained:
HSP90a protein = target: T1, HSP90a protein (Homo sapiens, UniProt P07900); assay: HSP90α-binding fluorescent polarization (FP) assay, BODIPY-labeled RNK04010 probe; settings: FP competition with RNK04010 (BODIPY-labeled), 5 nM, 300 min at 25° C.
T1 construct: purchased BPS Bioscience 50298
Summary of the method: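 Compounds (20 μM down to 5.2 nM, 2.5-fold steps) compete with a 5 nM fluorescent tracer for N-terminal HSP90a, measured by fluorescence polarization. With FITC-geldanamycin, plates sit 120 min at 25 °C. With BODIPY-RNK04010, they sit 300 min at 25 °C.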

[1] = tested on: NCI-H358 human non-small cell lung cancer; assay: NCI-H358 CCK-8 proliferation assay; assay type: cell-based; settings: NCI-H358 cells, 72 hr
Procedure: The following cancer cell lines were employed: BT-474 human breast carcinoma (ATCC, #HTB-20); MIA PaCa-2 human pancreatic carcinoma [2 copies KRAS(G12C)](ATCC, #CRL-1420); NCI-H23 human non-small cell lung cancer [1 copy KRAS(G12C)](ATCC, #CRL-5800); NCI-H358 human non-small cell lung cancer [1 copy KRAS(G12C)](ATCC, #CRL-5807); LU65A human lung carcinoma (Pharmaron, Beijing, China). Cell lines were cultured essentially according to ATCC and Pharmaron recommendations.
Cancer Cell Line Proliferation (CCK-8) Assays
3-fold serial dilutions of each test compound were prepared ranging from 20 μM to 1.02 nM.
% Inhibition=100−(D−B)/(S−B)*100%. • S: Absorbance of cells treated with DMSO • D: Absorbance of compound-treated cells • B: Absorbance of medium with DMSO without cells

[2] = tested on: MIA PaCa-2 human pancreatic carcinoma; assay: MIA PaCa-2 CCK-8 proliferation assay; assay type: cell-based; settings: Homo sapiens, MIA PaCa-2, 72 h, MIA PaCa-2 cells
Summary of the method: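 KRAS(G12C) lines were used: MIA PaCa-2 with 2 copies, and NCI-H358 and NCI-H23 with 1 copy each. Cells were treated with 3-fold compound dilutions from 20 μM to 1.02 nM, and proliferation was read by CCK-8 absorbance. % inhibition was calculated against DMSO-treated cells after subtracting the cell-free medium blank.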

KRAS(G12C) = KRAS(G12C) (Homo sapiens, UniProt P01116, G12C); assay: KRAS(G12C)/SOS1 homogeneous time-resolved fluorescence (HTRF) assay; design: purchased Cisbio 63ADK000CB16PEG; settings: absence of GTP, 4° C. for 3 hr, read-out: KRAS (G12C) binding
KRAS(G12C), sequence (P01116 1-188 isoform P01116-2 G12C): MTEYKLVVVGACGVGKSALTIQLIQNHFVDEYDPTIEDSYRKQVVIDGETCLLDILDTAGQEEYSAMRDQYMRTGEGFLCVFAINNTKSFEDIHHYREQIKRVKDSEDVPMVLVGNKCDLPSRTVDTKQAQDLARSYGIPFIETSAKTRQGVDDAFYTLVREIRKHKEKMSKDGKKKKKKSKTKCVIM
Summary of the method: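 Three-hour incubation at 4 °C of 3-fold compound dilutions (lowest 1.02 nM) with KRAS(G12C), SOS1 and detection reagents, GTP absent. Disruption of the KRAS(G12C)/SOS1 complex detected by time-resolved fluorescence.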

Row | SMILES | IC50 (HSP90a protein) [nM] | EC50 [1] [nM] | EC50 [2] [nM] | IC50 (KRAS(G12C)) [nM]
1 | C=CC(=O)N1CCN(c2nc(NCCC(=O)N3CCC(Cc4ccc(-n5c(O)nnc5-c5cc(C(C)C)c(O)cc5O)cc4)CC3)nc3c2CCN(c2cc(O)cc4ccccc24)C3)CC1 [Compound 1, 1-(4-(2-((3-(4-(4-(3-(2,4-dihydroxy-5-isopropylphenyl)-5-hydroxy-4H-1,2,4-triazol-4-yl)benzyl)piperidin-1-yl)-3-oxopropyl)amino)-7-(3-hydroxynaphthalen-1-yl)-5,6,7,8-tetrahydropyrido[3,4-d]pyrimidin-4-yl)piperazin-1-yl)prop-2-en-1-one, trifluoroacetic acid] | 100 to 1000 | > 1000 | – | –
2 | C=CC(=O)N1CCN(c2nc(NCCC(=O)N3CCN(c4ccc(-n5c(O)nnc5-c5cc(C(C)C)c(O)cc5O)cc4)CC3)nc3c2CCN(c2cc(O)cc4ccccc24)C3)CC1 [Compound 2, 1-(4-(2-((3-(4-(4-(3-(2,4-dihydroxy-5-isopropylphenyl)-5-hydroxy-4H-1,2,4-triazol-4-yl)phenyl)piperazin-1-yl)-3-oxopropyl)amino)-7-(3-hydroxynaphthalen-1-yl)-5,6,7,8-tetrahydropyrido[3,4-d]pyrimidin-4-yl)piperazin-1-yl)prop-2-en-1-one, trifluoroacetic acid] | 100 to 1000 | > 1000 | – | –
3 | C=CC(=O)N1CCN(c2nc(NCCC(=O)NCCOc3ccc(-n4c(O)nnc4-c4cc(C(C)C)c(O)cc4O)cc3)nc3c2CCN(c2cc(O)cc4ccccc24)C3)CC1 [Compound 3, 3-((4-(4-acryloylpiperazin-1-yl)-7-(3-hydroxynaphthalen-1-yl)-5,6,7,8-tetrahydropyrido[3,4-d]pyrimidin-2-yl)amino)-N-(2-(4-(3-(2,4-dihydroxy-5-isopropylphenyl)-5-hydroxy-4H-1,2,4-triazol-4-yl)phenoxy)ethyl)propanamide, trifluoroacetic acid] | 100 to 1000 | > 1000 | – | –
4 | C=CC(=O)N1CCN(c2nc(NCCC(=O)NCCc3ccc(-n4c(O)nnc4-c4cc(C(C)C)c(O)cc4O)cc3)nc3c2CCN(c2cc(O)cc4ccccc24)C3)CC1 [Compound 4, 3-((4-(4-acryloylpiperazin-1-yl)-7-(3-hydroxynaphthalen-1-yl)-5,6,7,8-tetrahydropyrido[3,4-d]pyrimidin-2-yl)amino)-N-(4-(3-(2,4-dihydroxy-5-isopropylphenyl)-5-hydroxy-4H-1,2,4-triazol-4-yl)phenethyl)propanamide, trifluoroacetic acid] | 100 to 1000 | > 1000 | – | –
5 | C=CC(=O)N1CCN(c2nc(NCCC(=O)NCCOCCOCCOc3ccc(-n4c(O)nnc4-c4cc(CC)c(O)cc4O)cc3)nc3c2CCN(c2cc(O)cc4ccccc24)C3)CC1 [Compound 5, 3-((4-(4-acryloylpiperazin-1-yl)-7-(3-hydroxynaphthalen-1-yl)-5,6,7,8-tetrahydropyrido[3,4-d]pyrimidin-2-yl)amino)-N-(2-(2-(2-(4-(3-(5-ethyl-2,4-dihydroxyphenyl)-5-hydroxy-4H-1,2,4-triazol-4-yl)phenoxy)ethoxy)ethoxy)ethyl)propanamide, trifluoroacetic acid] | > 1000 | > 1000 | – | –
6 | C=CC(=O)N1CCN(c2nc(NCCC(=O)NCCOCCOc3ccc(-n4c(O)nnc4-c4cc(CC)c(O)cc4O)cc3)nc3c2CCN(c2cc(O)cc4ccccc24)C3)CC1 [Compound 6, 3-((4-(4-acryloylpiperazin-1-yl)-7-(3-hydroxynaphthalen-1-yl)-5,6,7,8-tetrahydropyrido[3,4-d]pyrimidin-2-yl)amino)-N-(2-(2-(4-(3-(5-ethyl-2,4-dihydroxyphenyl)-5-hydroxy-4H-1,2,4-triazol-4-yl)phenoxy)ethoxy)ethyl)propanamide, trifluoroacetic acid] | > 1000 | > 1000 | – | –
7 | C=CC(=O)N1CCN(c2nc(NCCC(=O)NCc3ccc(-n4c(O)nnc4-c4cc(C(C)C)c(O)cc4O)cc3)nc3c2CCN(c2cc(O)cc4ccccc24)C3)CC1 [Compound 7, 3-((4-(4-acryloylpiperazin-1-yl)-7-(3-hydroxynaphthalen-1-yl)-5,6,7,8-tetrahydropyrido[3,4-d]pyrimidin-2-yl)amino)-N-(4-(3-(2,4-dihydroxy-5-isopropylphenyl)-5-hydroxy-4H-1,2,4-triazol-4-yl)benzyl)propanamide, trifluoroacetic acid] | 100 to 1000 | > 1000 | – | –
8 | C=CC(=O)N1CCN(c2nc(NCCC(=O)N3CCC(CN4CCN(Cc5ccc(-n6c(O)nnc6-c6cc(CC)c(O)cc6O)cc5F)CC4)CC3)nc3c2CCN(c2cc(O)cc4ccccc24)C3)CC1 [Compound 8, 1-(4-(2-((3-(4-((4-(4-(3-(5-ethyl-2,4-dihydroxyphenyl)-5-hydroxy-4H-1,2,4-triazol-4-yl)-2-fluorobenzyl)piperazin-1-yl)methyl)piperidin-1-yl)-3-oxopropyl)amino)-7-(3-hydroxynaphthalen-1-yl)-5,6,7,8-tetrahydropyrido[3,4-d]pyrimidin-4-yl)piperazin-1-yl)prop-2-en-1-one, trifluoroacetic acid] | 100 to 1000 | 100 to 1000 | – | –
9 | C=CC(=O)N1CCN(C2CN(c3cc(O)cc4ccccc34)Cc3nc(NCCC(=O)NCCOCCOCCOc4ccc(-n5c(O)nnc5-c5cc(C(C)C)c(O)cc5O)cc4)ncc32)CC1 (centres unmarked) [Compound 9, 3-((5-(4-acryloylpiperazin-1-yl)-7-(3-hydroxynaphthalen-1-yl)-5,6,7,8-tetrahydropyrido[3,4-d]pyrimidin-2-yl)amino)-N-(2-(2-(2-(4-(3-(2,4-dihydroxy-5-isopropylphenyl)-5-hydroxy-4H-1,2,4-triazol-4-yl)phenoxy)ethoxy)ethoxy)ethyl)propanamide, trifluoroacetic acid] | 100 to 1000 | > 1000 | – | –
10 | C=CC(=O)N1CCN(c2nc(NCCC(=O)N3CCC(CN4CCC(Cc5ccc(-n6c(O)nnc6-c6cc(C(C)C)c(O)cc6O)cc5)CC4)CC3)nc3c2CCN(c2cc(O)cc4ccccc24)C3)CC1 [Compound 12, 1-(4-(2-((3-(4-((4-(4-(3-(2,4-dihydroxy-5-isopropylphenyl)-5-hydroxy-4H-1,2,4-triazol-4-yl)benzyl)piperidin-1-yl)methyl)piperidin-1-yl)-3-oxopropyl)amino)-7-(3-hydroxynaphthalen-1-yl)-5,6,7,8-tetrahydropyrido[3,4-d]pyrimidin-4-yl)piperazin-1-yl)prop-2-en-1-one, trifluoroacetic acid] | 100 to 1000 | > 1000 | – | –
11 | C=CC(=O)N1CCN(c2nc(OC[C@@H]3C[C@H](C(=O)N4CCN(CCNC(=O)c5nnc(-c6cc(C(C)C)c(O)cc6O)n5-c5ccccc5)CC4)CN3C)nc3c2CCN(c2cccc4cccc(Cl)c24)C3)C[C@@H]1CC#N [Compound 343, N-(2-{4-[(3S,5S)-5-({[7-(8-chloronaphthalen-1-yl)-4-[(3S)-3-(cyanomethyl)-4-(pr-op-2-enoyl)piperazin-1-yl]-5H,6H,8H-pyrido[3,4-d]pyrimidin-2-yl]oxy}methyl)-1-methylpyrrolidine-3-carbonyl]piperazin-1-yl}ethyl)-5-(2,4-dihydroxy-5-isopropylphenyl)-4-phenyl-1,2,4-triazole-3-carboxamide] | < 100 | – | 100 to 1000 | < 100
12 | C=CC(=O)N1CCN(c2nc(OC[C@@H]3C[C@H](C(=O)N4CCN(Cc5ccc(-n6c(C(=O)NCCN7CCN(S(C)(=O)=O)CC7)nnc6-c6cc(C(C)C)c(O)cc6O)cc5)CC4)CN3C)nc3c2CCN(c2cccc4cccc(Cl)c24)C3)C[C@@H]1CC#N [Compound 344, 4-[4-({4-[(3S,5S)-5-({[7-(8-chloronaphthalen-1-yl)-4-[(3S)-3-(cyanomethyl)-4-(pr-op-2-enoyl)piperazin-1-yl]-5H,6H,8H-pyrido[3,4-d]pyrimidin-2-yl]oxy}methyl)-1-methylpyrrolidine-3-carbonyl]piperazin-1-yl}methyl)phenyl]-5-(2,4-dihydroxy-5-isopropylphenyl)-N-[2-(4-methanesulfonylpiperazin-1-yl)ethyl]-1,2,4-triazole-3-carboxamide] | < 100 | – | 100 to 1000 | < 100
13 | C=CC(=O)N1CCN(c2nc(OC[C@@H]3C[C@H](C(=O)NCCc4ccc(-n5c(O)nnc5-c5cc(C(C)C)c(O)cc5O)cc4)CN3C)nc3c2CCN(c2cccc4cccc(Cl)c24)C3)C[C@@H]1CC#N [Compound 345, (3S,5S)-5-({[7-(8-chloronaphthalen-1-yl)-4-[(3S)-3-(cyanomethyl)-4-(prop-2-enoyl)piperazin-1-yl]-5H,6H,8H-pyrido[3,4-d]pyrimidin-2-yl]oxy}methyl)-N-(2-{4-[3-(2,4-dihydroxy-5-isopropylphenyl)-5-hydroxy-1,2,4-triazol-4-yl]phenyl}ethyl)-1-methylpyrrolidine-3-carboxamide] | < 100 | – | 100 to 1000 | < 100
